# Laboratory results published in patent US6267962A, “Compositions and methods of treatment using peat derivatives” (C-P Technology Limited Partnership, priority 1997, dated 2001).
# Tested on: psoriasis
# Test: Psoriasis, patients 32 and 33
# Type: in vivo, human
# Details: patient 32; fluocinonide alone on other elbow
# From the text: Patient 32 had suffered from psoriasis on their arms and elbows for over 10 years. A 10-30 Kd peat preparation was applied to one elbow twice daily for approximately nine months, with the occasional simultaneous application of fluocinonide cream. Fluocinonide cream alone was used on the other elbow.
# Patient 33 had psoriasis that seemed to only manifest itself after an occurrence of strep throat. Their only successful treatment had been with chemotherapeutic agents.
structure (smiles),measurement,value
CC(=O)OCC(=O)[C@@]12OC(C)(C)O[C@@H]1C[C@H]1[C@@H]3C[C@H](F)C4=CC(=O)C=C[C@]4(C)[C@@]3(F)[C@@H](O)C[C@@]12C [fluocinonide],"psoriasis of elbow, skin lesions",no decrease in the skin lesions
